Laboratory results: patent US20190343908A1, “Therapeutic Combination for the Treatment of Cancer” (Nerium Biotechnology Inc., priority 2011, published 2019)

How the values were obtained:
[1] = system: PC3 (human prostate cancer); assay: Crystal Violet viability assay, PC3; assay type: cell-based
Source text: (§1) Three different viability assays were chosen to complement each other and yielded results dependent on concentration and cell line: the Methyl Tetrazolium dye assay, the Sulforhodamine B fluorescent dye assay, and the Crystal Violet dye assay.
(§2) The Sulforhodamine B and Crystal Violet assays provide information about protein and were used to complement the Methyl-Tetrazolium dye assay. […] It is used for the quantification of cellular proteins of cultured cells. The assay using Crystal Violet, a dye that binds electrostatically to proteins and stains DNA, provides a reliable, simple assay for measuring viability of cells.
(§3) The Methyl Tetrazolium, Sulforhodamine B, and Crystal Violet assays were used to assess cell viabilities. The incubation times were 24 hours, 48 hours, and 72 hours. The Nerium oleander extract Anvirzel™ (a hot water extract of oleander obtained from Salud Integral, Honduras) was tested in concentrations ranging from 0.01 ng/mL to 10 ng/mL.
(§4) Cells were detached by trypsinization (Trypsin-0.25% EDTA, Invitrogen, 25200-072) during the logarithmic phase of culture growth and plated in 96-well plates (18.000 cells/well) (Corning, Costar 359) in a final volume of 200 μl of medium per well. […] The absorbance was measured after 24 hours, 48 hours, and 72 hours of incubation.
(§5) For the Crystal Violet assay, the medium was removed from the 96-well plates, the plates rinsed with PBS (Sigma, P3813) and then the cells were […] by the addition of 10% formalin (MERCK, 1.04003.2500) for 20 minutes at RT. Formalin was removed and 0.25% aqueous crystal violet (Sigma, HT901), dissolved in water, was added for 10 minutes at RT. Unbound Crystal Violet was rinsed by washing with water and finally 33% acetic acid was added to dissolve the dye.
(§6) The optical density of each plate was measured on a μQuant spectrophotometer and the data were analyzed with Gen5 software (μQuant Biomolecular Spectrophotometer MQX200 and Gen5™ Microplate Data Collection & Analysis software, BioTek® Instruments. Inc, April 2008). Absorbance was measured at 570 nm for all assays and a second wavelength was measured in order to subtract noise. For the Methyl-Tetrazolium assay this second wavelength was 630 nm and for the Sulforhodamine B and Crystal Violet assays it was 690 nm.

[2] = system: MDA-MB 231 (human breast cancer); assay: Sulforhodamine B viability assay, MDA-MB 231; assay type: cell-based; conditions: for SRB 24 h / SRB 48 h / SRB 72 h: Run 3 average
Source text: as §1, §2, §3, §4
For the Sulforhodamine B assay, 96-well plates were fixed by 10% trichloroacetic acid (Fluka, 91228) and were incubated at 4° C. for 1 hour. Afterwards, plates were rinsed with water and cells were stained with 0.4% Sulforhodamine B (Sigma, 341738), dissolved in 1% acetic acid (Carlo Ebra, 401422) for 15 minutes at room temperature (RT). The unbound stain was washed twice with 1% acetic acid. Finally, 10 mM Tris Buffer pH 10.5 (Sigma, T6791) was added to dissolve the dye.
as §6

[3] = system: COR-L 105 (non-small cell lung carcinoma); assay: Crystal Violet viability assay, COR-L 105; assay type: cell-based, human; parameters: key to CVE Average: absorbance at 570 nm (crystal violet), background wavelength subtracted; conditions: for CVE Average 24 h / CVE Average 48 h / CVE Average 72 h: COR-L 105, Run 3
Source text: as §1, §2, §3, §4, §5, §6

Structure (SMILES): N.N.[Cl][Pt][Cl] [cisplatin]
- CVE Average ([1]; PC3 Run 1, 24 h, 0.1 μg/ml CDDP): 0.73
- CVE Average ([1]; PC3 Run 1, 24 h, 1 μg/ml CDDP): 0.368
- CVE Average ([1]; PC3 Run 1, 24 h, 10 μg/ml CDDP): 0.548
- CVE Average ([1]; PC3 Run 1, 24 h, 100 μg/ml CDDP): 0.337
- CVE Average ([1]; PC3 Run 1, 48 h, 0.1 μg/ml CDDP): 0.938
- CVE Average ([1]; PC3 Run 1, 48 h, 1 μg/ml CDDP): 0.483
- CVE Average ([1]; PC3 Run 1, 48 h, 10 μg/ml CDDP): 0.706
- CVE Average ([1]; PC3 Run 1, 48 h, 100 μg/ml CDDP): 0.619
- CVE Average ([1]; PC3 Run 1, 72 h, 0.1 μg/ml CDDP): 1.091
- CVE Average ([1]; PC3 Run 1, 72 h, 1 μg/ml CDDP): 0.415
- CVE Average ([1]; PC3 Run 1, 72 h, 10 μg/ml CDDP): 0.64
- CVE Average ([1]; PC3 Run 1, 72 h, 100 μg/ml CDDP): 0.421
- CVE Average ([1]; PC3 Run 2, 24 h, 0.1 μg/ml CDDP): 0.489
- CVE Average ([1]; PC3 Run 2, 24 h, 1 μg/ml CDDP): 0.238
- CVE Average ([1]; PC3 Run 2, 24 h, 10 μg/ml CDDP): 0.498
- CVE Average ([1]; PC3 Run 2, 24 h, 100 μg/ml CDDP): 0.309
- CVE Average ([1]; PC3 Run 2, 48 h, 0.1 μg/ml CDDP): 0.714
- CVE Average ([1]; PC3 Run 2, 48 h, 1 μg/ml CDDP): 0.393
- CVE Average ([1]; PC3 Run 2, 48 h, 10 μg/ml CDDP): 0.694
- CVE Average ([1]; PC3 Run 2, 48 h, 100 μg/ml CDDP): 0.419
- CVE Average ([1]; PC3 Run 2, 72 h, 0.1 μg/ml CDDP): 0.76
- CVE Average ([1]; PC3 Run 2, 72 h, 1 μg/ml CDDP): 0.284
- CVE Average ([1]; PC3 Run 2, 72 h, 10 μg/ml CDDP): 0.526
- CVE Average ([1]; PC3 Run 2, 72 h, 100 μg/ml CDDP): 0.316
- CVE Average ([1]; PC3 Run 3, 24 h, 0.1 μg/ml CDDP): 0.653
- CVE Average ([1]; PC3 Run 3, 24 h, 1 μg/ml CDDP): 0.551
- CVE Average ([1]; PC3 Run 3, 24 h, 10 μg/ml CDDP): 0.638
- CVE Average ([1]; PC3 Run 3, 24 h, 100 μg/ml CDDP): 0.301
- CVE Average ([1]; PC3 Run 3, 48 h, 0.1 μg/ml CDDP): 0.599
- CVE Average ([1]; PC3 Run 3, 48 h, 1 μg/ml CDDP): 0.4
- CVE Average ([1]; PC3 Run 3, 48 h, 10 μg/ml CDDP): 0.599
- CVE Average ([1]; PC3 Run 3, 48 h, 100 μg/ml CDDP): 0.367
- CVE Average ([1]; PC3 Run 3, 72 h, 0.1 μg/ml CDDP): 0.927
- CVE Average ([1]; PC3 Run 3, 72 h, 1 μg/ml CDDP): 1.001
- CVE Average ([1]; PC3 Run 3, 72 h, 10 μg/ml CDDP): 0.666
- CVE Average ([1]; PC3 Run 3, 72 h, 100 μg/ml CDDP): 0.282
- SRB 24 h Average ([2]; Run 1, 0.1 μg/ml CDDP): 1.792
- SRB 48 h Average ([2]; Run 1, 0.1 μg/ml CDDP): 2.678
- SRB 72 h Average ([2]; Run 1, 0.1 μg/ml CDDP): 2.873
- SRB 24 h Average ([2]; Run 1, 1 μg/ml CDDP): 1.395
- SRB 48 h Average ([2]; Run 1, 1 μg/ml CDDP): 2.254
- SRB 72 h Average ([2]; Run 1, 1 μg/ml CDDP): 2.928
- SRB 24 h Average ([2]; Run 1, 10 μg/ml CDDP): 1.785
- SRB 48 h Average ([2]; Run 1, 10 μg/ml CDDP): 2.489
- SRB 72 h Average ([2]; Run 1, 10 μg/ml CDDP): 2.962
- SRB 24 h Average ([2]; Run 1, 100 μg/ml CDDP): 1.752
- SRB 48 h Average ([2]; Run 1, 100 μg/ml CDDP): 2.457
- SRB 72 h Average ([2]; Run 1, 100 μg/ml CDDP): 2.852
- SRB 24 h Average ([2]; Run 2, 0.1 μg/ml CDDP): 1.576
- SRB 48 h Average ([2]; Run 2, 0.1 μg/ml CDDP): 1.83
- SRB 72 h Average ([2]; Run 2, 0.1 μg/ml CDDP): 2.1
- SRB 24 h Average ([2]; Run 2, 1 μg/ml CDDP): 1.27
- SRB 48 h Average ([2]; Run 2, 1 μg/ml CDDP): 1.162
- SRB 72 h Average ([2]; Run 2, 1 μg/ml CDDP): 0.883
- SRB 24 h Average ([2]; Run 2, 10 μg/ml CDDP): 1.598
- SRB 48 h Average ([2]; Run 2, 10 μg/ml CDDP): 1.867
- SRB 72 h Average ([2]; Run 2, 10 μg/ml CDDP): 1.755
- SRB 24 h Average ([2]; Run 2, 100 μg/ml CDDP): 1.509
- SRB 48 h Average ([2]; Run 2, 100 μg/ml CDDP): 1.048
- SRB 72 h Average ([2]; Run 2, 100 μg/ml CDDP): 1.004
- SRB 24 h ([2]; 0.1 μg/ml CDDP): 2.643
- SRB 48 h ([2]; 0.1 μg/ml CDDP): 2.742
- SRB 72 h ([2]; 0.1 μg/ml CDDP): 2.87
- SRB 24 h ([2]; 1 μg/ml CDDP): 1.382
- SRB 48 h ([2]; 1 μg/ml CDDP): 1.537
- SRB 72 h ([2]; 1 μg/ml CDDP): 2.07
- SRB 24 h ([2]; 10 μg/ml CDDP): 2.134
- SRB 48 h ([2]; 10 μg/ml CDDP): 2.364
- SRB 72 h ([2]; 10 μg/ml CDDP): 2.593
- SRB 24 h ([2]; 100 μg/ml CDDP): 1.141
- SRB 48 h ([2]; 100 μg/ml CDDP): 1.464
- SRB 72 h ([2]; 100 μg/ml CDDP): 1.493
- CVE Average 24 h ([3]; 0.1 μg/ml CDDP): 0.388
- CVE Average 48 h ([3]; 0.1 μg/ml CDDP): 0.709
- CVE Average 72 h ([3]; 0.1 μg/ml CDDP): 0.457
- CVE Average 24 h ([3]; 1 μg/ml CDDP): 0.363
- CVE Average 48 h ([3]; 1 μg/ml CDDP): 0.517
- CVE Average 72 h ([3]; 1 μg/ml CDDP): 0.263
- CVE Average 24 h ([3]; 10 μg/ml CDDP): 0.358
- CVE Average 48 h ([3]; 10 μg/ml CDDP): 0.653
- CVE Average 72 h ([3]; 10 μg/ml CDDP): 0.387
- CVE Average 24 h ([3]; 100 μg/ml CDDP): 0.282
- CVE Average 48 h ([3]; 100 μg/ml CDDP): 0.341
- CVE Average 72 h ([3]; 100 μg/ml CDDP): 0.389
- CVE Average ([3]; Run 1, 24 h, 0.1 μg/ml CDDP): 0.413
- CVE Average ([3]; Run 1, 24 h, 1 μg/ml CDDP): 0.431
- CVE Average ([3]; Run 1, 24 h, 10 μg/ml CDDP): 0.484
- CVE Average ([3]; Run 1, 24 h, 100 μg/ml CDDP): 0.307
- CVE Average ([3]; Run 1, 48 h, 0.1 μg/ml CDDP): 0.599
- CVE Average ([3]; Run 1, 48 h, 1 μg/ml CDDP): 0.643
- CVE Average ([3]; Run 1, 48 h, 10 μg/ml CDDP): 0.632
- CVE Average ([3]; Run 1, 48 h, 100 μg/ml CDDP): 0.379
- CVE Average ([3]; Run 1, 72 h, 0.1 μg/ml CDDP): 0.298
- CVE Average ([3]; Run 1, 72 h, 1 μg/ml CDDP): 0.23
- CVE Average ([3]; Run 1, 72 h, 10 μg/ml CDDP): 0.216
- CVE Average ([3]; Run 1, 72 h, 100 μg/ml CDDP): 0.244
- CVE Average ([3]; Run 2, 24 h, 0.1 μg/ml CDDP): 0.388
- CVE Average ([3]; Run 2, 24 h, 1 μg/ml CDDP): 0.363
- CVE Average ([3]; Run 2, 24 h, 10 μg/ml CDDP): 0.358
- CVE Average ([3]; Run 2, 24 h, 100 μg/ml CDDP): 0.282
- CVE Average ([3]; Run 2, 48 h, 0.1 μg/ml CDDP): 0.709
- CVE Average ([3]; Run 2, 48 h, 1 μg/ml CDDP): 0.517
- CVE Average ([3]; Run 2, 48 h, 10 μg/ml CDDP): 0.653
- CVE Average ([3]; Run 2, 48 h, 100 μg/ml CDDP): 0.341
- CVE Average ([3]; Run 2, 72 h, 0.1 μg/ml CDDP): 0.457
- CVE Average ([3]; Run 2, 72 h, 1 μg/ml CDDP): 0.263
- CVE Average ([3]; Run 2, 72 h, 10 μg/ml CDDP): 0.387
- CVE Average ([3]; Run 2, 72 h, 100 μg/ml CDDP): 0.389
